From publication PMC9006931, “Altered Response Pattern following AZD5582 Treatment of SIV-Infected, ART-Suppressed Rhesus Macaque Infants” (Journal of Virology, 2022) come the findings set out here.

In general, Cmax refers to the maximum level reached in the sampled fluid or tissue.

Data set [1] is described as follows: Plasma pharmacokinetics of AZD5582 in infant RMs (HPLC-MS/MS, NCA). It is filed as in vivo, rhesus macaque. On the procedure:
As a potential explanation for the dampened virologic response to AZD5582 observed in infant RMs, we investigated AZD5582 pharmacokinetics (PK) following the third dose using a sparse sampling design. Blood samples were collected immediately following infusion in 4 RMs and from 2 RMs per time point at 1 h, 2 h, 4 h, 8 h, and 24 h postinfusion. […] Noncompartmental analysis (NCA) was conducted to determine pharmacokinetic parameters in infants and compared with available PK data from adult historical controls of SIV-infected, ART-suppressed rhesus macaques (n = 7) given matched doses of AZD5582 (Fig. 4B) ([17]). […] Although corresponding data were not collected from adult macaques, we note that in infants the AUC0-24h was calculated as 239 ng × hr/mL.
Plasma samples were collected from RMs over 24 h following the start of a single 30 min intravenous infusion of AZD5582 using a previously published ([17]). A high-performance liquid chromatography-mass spectrometry (HPLC-MS/MS) method with a dynamic range of 0.2 to 1000 ng/mL. Noncompartmental analysis (NCA) was performed using Phoenix64 WinNonlin v8.1 software using the sparse sampling function to derive mean PK parameters. The linear up-log down trapezoidal rule was used to calculate AUC. The terminal elimination rate constant (kel) was estimated by fitting a linear regression line on a semilog plot to the individual concentration data constrained to observations from 4 to 24 h post start of infusion and used to calculate terminal elimination half-life. One observation below the assay’s limit of quantification was imputed at ½ the lower limit of quantification ([35]).

Data set [2] deals with SIV gag DNA in CD4+ T cells. Briefly: Cell-associated SIV DNA / RNA in CD4+ T cells. It counts as in vivo. The following applies: before dose 1, 3dp- and 2wp-AZD5582 treatment, infant RMs. On the procedure:
Plasma viral quantification was performed as described previously ([12]). The frozen cell pellet was lysed with proteinase K (100 μg/mL in 10 mM Tris-HCl pH 8) for 1h at 56°C. Quantification of SIVmac gag DNA was performed by quantitative PCR (qPCR) using the 5′ nuclease (TaqMan) assay with an ABI7500 system (PerkinElmer Life Sciences). The sequence of the forward primer for SIVmac gag was 5′-[…]-3′, the reverse primer sequence was 5′-[…]-3′, and the probe sequence was 5′-6-carboxyfluorescein (FAM)-[…]-6-carboxytetramethylrhodamine (TAMRA)-3′. 7.5 μL of cell lysate were mixed in a 50 μL reaction mixture containing 1× Platinum Buffer, 3.5 mM MgCl2, 0.2 mM dNTP, primers 200 nM, probe 150 nM, and 2U Platinum Taq. For cell number quantification, quantitative PCR was performed simultaneously for monkey albumin gene copy number. The sequence of the forward primer for albumin was F 5′-[…]-3′; the reverse primer sequence was 5′- ATGGTCGCCTGTTCACCAA-3′ and the probe sequence was 5′-[…]-3′ ([34]). The reactions were performed on a 7500 real-time PCR system (Applied Biosystems) with the following thermal program: 10 min at 95°C, followed by 40 cycles of denaturation at 95°C for 15 s and annealing at 60°C for 1 min.

For data set [3], the system named is ncNF-κB pathway genes BIRC3 and NFkB2. The experiment in a line: Ex vivo AZD5582 stimulation of sorted naive and memory CD4+ T cells, target gene RT-qPCR. It is filed as cell-based, rhesus macaque. To be noted: 1000 nM (n = 6) or 100 nM (n = 4) AZD5582, 24 h. The source says:
We have previously shown that naive CD4^+ T cells are a major contributor to the viral reservoir in both SIV- and SHIV-infected infant macaques ([10], [11]). We were therefore interested to determine whether the dampened ART viremia that we observed in vivo was due to differential induction of ncNF-kB activation in naive and memory CD4^+ T cells following AZD5582 treatment. It is well documented that activation of naive CD4^+ T cells relies predominantly on cNF-κB and not the ncNF-κB pathway ([22]). […]
For cell sorting, peripheral CD4^+ T cells were first enriched by negative selection with the use of magnetic beads and column purification (nonhuman primate CD4^+ T cell isolation kit; Miltenyi). Enriched CD4^+ T cells were then stained with viability dye (Live/Dead Aqua) and previously determined volumes of the following fluorescently conjugated MAbs: CD3-AF700 (clone SP34-2), CD8-APC-Cy7 (clone SK1), CD95-PE-Cy5 (clone DX2), CD62L-PE (clone SK11), and CCR7-PE-Cy7 (clone 3D12) from BD Biosciences; CD4-BV650 from BioLegend. […]
Naïve and memory CD4^+ T cells were treated with 100 or 1000 nM AZD5582 for 24 h and then stored as a dry pellet until RNA extraction. […] Gene expression was normalized to TATA box binding protein (TBP) and the comparative threshold cycle (Ct) method (ΔΔCt) was used for relative quantification of gene expression. […]
On the technique in general: In qPCR the cycle at which signal appears reflects the starting amount.

The mark [4] stands for this setting: rhesus monkey, in vivo, iv, 0.1 mg/kg.

On to `CN[C@@H](C)C(=O)N[C@H](C(=O)N1CCC[C@H]1C(=O)N[C@H]1c2ccccc2C[C@H]1OCC#CC#CCO[C@@H]1Cc2ccccc2[C@@H]1NC(=O)[C@@H]1CCCN1C(=O)[C@@H](NC(=O)[C@H](C)NC)C1CCCCC1)C1CCCCC1` [AZD5582], for which the “Fold lower AUC0-2h in infants compared with adults” value in data set [1] (infant vs adult RMs) was 2.3 fold. Also, in data set [1] (setting [4]), the AUC0-2h turned out to be 223 ng·h/mL, the AUC0-24h is 239 ng·h/mL, the Cmax is listed as 294 ng/mL and the “t1/2 (terminal elimination halflife)” value turned out to be 9.9 h. The “Cell-associated SIV RNA in peripheral CD4+ T cells” value in data set [2] is on record as “remained stable”. Also, in data set [3], the “Fold induction of BIRC3 gene expression, naive versus memory CD4+ T cells” value is listed as “No significant difference” and the “Fold induction of NFkB2 gene expression, naive versus memory CD4+ T cells” value was “No significant difference”.
